Patent US20230048132A1, “CYCLIN-DEPENDENT KINASE INHIBITORS” (SPV THERAPEUTICS INC., priority 2018, published 2023)

Key:
CDK2-CYCLINA = target: T1, CDK2-CYCLINA (Homo sapiens, UniProt P24941); assay: CDK inhibition assay (microfluidic LabChip, IC50 format); format: biochemical; conditions: Table 4a; read-out: CDK2 CyclinA IC50
T1 construct: purchased Millipore

CDK6-CYCLIND3 = target: T2, CDK6-CYCLIND3 (Homo sapiens, UniProt Q00534); assay: as above; format: biochemical; conditions: Table 4a; read-out: CDK6 CyclinD3 IC50
T2 construct: purchased Carna

CDK7 CyclinH = CDK7 CyclinH (Homo sapiens, UniProt P50613); assay: as above; format: biochemical; conditions: Table 4a
CDK9-CYCLINT1 = target: T3, CDK9-CYCLINT1 (Homo sapiens, UniProt P50750); assay: as above; format: biochemical; conditions: Table 4a; read-out: CDK9 CyclinT1 IC50
T3 construct: purchased Carna

LEXFAL MOLT-4 = assay: 2D cell proliferation assay (CellTiter-Blue); format: cell-based; conditions: Homo sapiens, 72 h, three days of treatment, read-out: abs. IC50
Protocol: (§1) Viability of the cells was analyzed by using the CellTiter-Blue® Cell Viability Assay (Promega), and was performed according to manufacturer's instructions. Briefly, cells were harvested from exponential phase cultures (Chapter 6.6), counted and plated in 96-well flat-bottom microtiter plates at a cell density of 4,000-60,000 cells/well in a volume of 140 μl per well. After a 24 hours recovery period, 10 μL cell culture medium (six control wells/plate) or culture medium with test compound were added (Chapter 6.2). The compounds were applied at five concentrations in full-log increments up to 100 μM in duplicate. Cultures were incubated at 37° C. and 5% CO2 in a humidified atmosphere for another three days. After three days of treatment, 20 μl/well CellTiter-Blue® reagent was added. Following incubation with CellTiter-Blue® reagent for up to four hours, fluorescence (FU) was measured by using the Enspire Multimode Plate Reader (excitation λ=570 nm, emission λ=600 nm). For calculations, the mean values of duplicate/sextuplicate (untreated control) data were used.
(§2) An assay was considered fully evaluable if the following quality control criteria were fulfilled: • control/background ratio>3.0-Z′-factor calculated within the assay plate>0.5 [7]—coefficient of variation in the growth control wells <30%
(§3) Drug effects were expressed in terms of the percentage of the fluorescence signal, obtained by comparison of the mean signal in the treated wells with the mean signal of the untreated controls (expressed by the test-versus-control value, T/C-value [%]):
(§4) IC values are reported as relative IC50 values and absolute IC50 and IC70 values. […] The absolute IC70 value gives the concentration of the test compound that achieves T/C=30%. The relative IC50 value is the concentration of test compound that gives a response halfway between the top and bottom plateau of the sigmoidal concentration-response curve (inflection point of the curve). Calculation was done by 4parameter non-linear curve fit (Oncotest Data Warehouse Software).
(§5) If an IC50 or IC70 value could not be determined within the examined dose range (because a compound was either too active or lacked activity), the lowest or highest concentration studied was used for calculation of the geometric mean value.

LEXFAM MV4-11 = assay: 2D cell proliferation assay (CellTiter-Blue); format: cell-based; conditions: Homo sapiens, 72 h, three days of treatment, read-out: abs. IC50
Protocol: as §1, §2, §3, §4, §5

LXFA A549 = assay: 2D cell proliferation assay (CellTiter-Blue); format: cell-based; conditions: Homo sapiens, 72 h, three days of treatment, read-out: abs. IC50
Protocol: as §1, §2, §3, §4, §5

LXFL NCl-H1299 = assay: 2D cell proliferation assay (CellTiter-Blue); format: cell-based; conditions: 72 h, three days of treatment, read-out: abs. IC50
Protocol: as §1, §2, §3, §4, §5

MAXFLB MCF7 (ER+) = assay: 2D cell proliferation assay (CellTiter-Blue); format: cell-based; conditions: Homo sapiens, 72 h, three days of treatment, read-out: abs. IC50
Protocol: as §1, §2, §3, §4, §5

MAXFTN MDA-MB-231 (ER−) = assay: 2D cell proliferation assay (CellTiter-Blue); format: cell-based; conditions: Homo sapiens, 72 h, three days of treatment, read-out: abs. IC50
Protocol: as §1, §2, §3, §4, §5

MAXFTN ZR-75-1 (ER+) = assay: 2D cell proliferation assay (CellTiter-Blue); format: cell-based; conditions: Homo sapiens, 72 h, three days of treatment, read-out: abs. IC50
Protocol: as §1, §2, §3, §4, §5

MEXF WM-266-4 = assay: 2D cell proliferation assay (CellTiter-Blue); format: cell-based; conditions: Homo sapiens, 72 h, three days of treatment, read-out: abs. IC50
Protocol: as §1, §2, §3, §4, §5

all cell lines tested = assay: 2D cell proliferation assay, geometric mean over the cell line panel; format: cell-based; conditions: Table 5 lower part; geometric mean over the 8-line panel; read-out: Geomean abs. IC50 value
Protocol: as §1, §4, §5
The overall potency of a compound was determined by the geometric mean IC50/IC70 values of all individual IC50/IC70 values. In the heatmap representation of IC50 and IC70 values, the distribution of the IC50 or IC70 values obtained for a test compound in the individual cell lines is given in relation to the geometric mean IC50 or IC70 value, obtained over all PDX models tested. The individual IC values range from 1/32-fold geometric mean IC (corresponding to very potent compound activity or high tumor sensitivity) to 32-fold geometric mean IC (corresponding to lack of compound activity or tumor resistance). The heatmap presentation, therefore, represents an antiproliferative “fingerprint” profile of a test compound.

[1] = Pharmacokinetics after IV bolus; format: in vivo; conditions: rat, plasma; rats; IV bolus 30 mg/kg; N = 3
Protocol: (§6) Nonclinical pharmacokinetic (PK) parameters of lead CDK4/6/9 inhibitors were determined in an intravenous (IV) and oral study (p.o.) conducted in rats. Lead compounds were each administered as a single oral dose at 100 mg/kg or by IV bolus via the caudal vein at the dose of 30 mg/kg. Blood samples were collected at 0.25, 0.5, 1, 2, 4, 8, 12, and 24 hours post i.v. administration, and at 1, 2, 4, 8, 24 and 48 hours post oral administration. Plasma was processed for drug concentration analysis using a validated LCMS/MS method, and PK parameters were calculated by using WinNonlin.

[2] = Pharmacokinetics after oral administration; format: in vivo; conditions: rat, plasma, rats
Protocol: as §6

CDK4-CYCLIND1 = CDK4-CYCLIND1 (Homo sapiens, UniProt P11802); assay: CDK inhibition assay (microfluidic LabChip, IC50 format); conditions: CDK4 CyclinD1 IC50, Table 4a; a second value in parentheses for some compounds
Protocol: Inhibition assays were performed using microfluidic LabChip 300 Drug Discovery System from Caliper Life Sciences. […] The assay has a total volume of 10 μL consisting of 5 μL of enzyme and buffer and 5 μL of substrate and buffer. The test compounds were diluted in 100% dimethylsulfoxide (DMSO) using 3-fold dilution steps. […] Compounds were tested in a single well for each dilution and the final concentration of DMSO was maintained at 1%.
The assay buffer contained 100 mM HEPES, pH 7.5, 0.01% Triton X-100, 0.1% bovine serum albumin (BSA), 5 mM MgCl2; 1 mM dithiothreitol (DTT), 10 μM sodium orthovanadate, and 10 μM β-glycerophosphate.
The assay was conducted by adding 5 μL of enzyme, adenosine triphosphate (ATP) and buffer to an assay plate. A 100 nL aliquot of the diluted compounds were added to the plate. The assay was initiated by the addition of 5 μL of phosphoenolpyruvate substrate (PEP) in buffer. […] The reaction was terminated by the addition of EDTA. The plates were analyzed using a Caliper LabChip 3000.
Additional inhibition assays were performed as described above.
The assays were conducted as described above for the racemates.

[3] = oral administration 100 mg/kg, N = 3

T3 sequence (P50750 whole entry): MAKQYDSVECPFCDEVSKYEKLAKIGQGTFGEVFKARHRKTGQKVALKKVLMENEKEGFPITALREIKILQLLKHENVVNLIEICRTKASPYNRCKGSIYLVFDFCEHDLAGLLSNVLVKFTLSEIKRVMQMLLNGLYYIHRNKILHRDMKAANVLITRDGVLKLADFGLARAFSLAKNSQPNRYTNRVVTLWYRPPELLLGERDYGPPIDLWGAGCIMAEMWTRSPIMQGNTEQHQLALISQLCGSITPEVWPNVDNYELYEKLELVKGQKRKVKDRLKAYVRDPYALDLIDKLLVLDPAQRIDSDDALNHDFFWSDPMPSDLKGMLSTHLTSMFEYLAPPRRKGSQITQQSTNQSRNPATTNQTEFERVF
T3 sequence (O60563 whole entry partner): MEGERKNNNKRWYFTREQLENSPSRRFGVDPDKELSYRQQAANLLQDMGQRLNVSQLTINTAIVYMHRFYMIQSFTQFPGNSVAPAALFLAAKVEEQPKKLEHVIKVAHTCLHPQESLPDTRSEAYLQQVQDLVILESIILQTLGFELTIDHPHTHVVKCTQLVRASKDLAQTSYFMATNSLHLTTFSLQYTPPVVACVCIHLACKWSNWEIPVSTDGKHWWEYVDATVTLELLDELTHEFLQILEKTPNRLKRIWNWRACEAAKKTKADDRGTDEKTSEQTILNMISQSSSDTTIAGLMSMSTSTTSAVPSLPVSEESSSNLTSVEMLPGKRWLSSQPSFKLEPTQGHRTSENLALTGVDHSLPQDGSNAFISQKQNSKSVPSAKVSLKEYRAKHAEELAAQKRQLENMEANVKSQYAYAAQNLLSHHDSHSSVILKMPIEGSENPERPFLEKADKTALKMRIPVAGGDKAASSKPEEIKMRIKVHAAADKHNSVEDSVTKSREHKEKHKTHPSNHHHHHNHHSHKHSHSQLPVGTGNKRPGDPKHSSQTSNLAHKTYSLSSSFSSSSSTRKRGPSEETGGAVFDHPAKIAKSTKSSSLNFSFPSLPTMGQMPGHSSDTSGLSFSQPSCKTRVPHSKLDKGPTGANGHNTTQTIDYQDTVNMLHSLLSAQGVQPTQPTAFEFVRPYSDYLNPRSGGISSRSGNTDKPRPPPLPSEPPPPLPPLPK
Sequence of CDK7 CyclinH (P50613 whole entry): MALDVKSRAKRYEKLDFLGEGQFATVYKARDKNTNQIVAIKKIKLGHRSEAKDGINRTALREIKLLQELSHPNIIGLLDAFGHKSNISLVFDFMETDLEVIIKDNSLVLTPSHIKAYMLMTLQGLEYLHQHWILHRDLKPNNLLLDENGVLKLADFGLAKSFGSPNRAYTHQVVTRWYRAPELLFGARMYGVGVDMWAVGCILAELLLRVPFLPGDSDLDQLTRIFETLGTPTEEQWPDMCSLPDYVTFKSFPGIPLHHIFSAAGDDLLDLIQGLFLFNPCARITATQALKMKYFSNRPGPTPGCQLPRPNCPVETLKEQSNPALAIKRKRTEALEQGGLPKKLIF
Sequence of CDK7 CyclinH (P51946 whole entry partner): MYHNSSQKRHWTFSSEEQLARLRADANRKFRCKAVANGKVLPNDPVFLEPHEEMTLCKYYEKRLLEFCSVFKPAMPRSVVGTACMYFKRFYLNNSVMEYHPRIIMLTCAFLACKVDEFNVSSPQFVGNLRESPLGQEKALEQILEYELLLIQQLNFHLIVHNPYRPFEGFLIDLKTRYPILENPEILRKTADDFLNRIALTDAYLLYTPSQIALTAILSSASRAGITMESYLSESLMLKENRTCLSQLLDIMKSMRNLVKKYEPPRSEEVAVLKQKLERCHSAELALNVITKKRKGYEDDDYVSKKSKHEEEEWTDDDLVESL
Sequence of CDK7 CyclinH (P51948 whole entry partner): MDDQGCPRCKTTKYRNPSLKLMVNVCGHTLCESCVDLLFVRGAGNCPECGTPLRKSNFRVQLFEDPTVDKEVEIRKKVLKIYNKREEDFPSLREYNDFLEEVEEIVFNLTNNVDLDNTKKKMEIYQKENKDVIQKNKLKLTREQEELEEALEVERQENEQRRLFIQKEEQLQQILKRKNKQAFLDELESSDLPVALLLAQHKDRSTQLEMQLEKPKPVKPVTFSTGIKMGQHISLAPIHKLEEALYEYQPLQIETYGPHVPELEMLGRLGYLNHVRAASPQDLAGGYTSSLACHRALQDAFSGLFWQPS
T2 sequence (Q00534 whole entry): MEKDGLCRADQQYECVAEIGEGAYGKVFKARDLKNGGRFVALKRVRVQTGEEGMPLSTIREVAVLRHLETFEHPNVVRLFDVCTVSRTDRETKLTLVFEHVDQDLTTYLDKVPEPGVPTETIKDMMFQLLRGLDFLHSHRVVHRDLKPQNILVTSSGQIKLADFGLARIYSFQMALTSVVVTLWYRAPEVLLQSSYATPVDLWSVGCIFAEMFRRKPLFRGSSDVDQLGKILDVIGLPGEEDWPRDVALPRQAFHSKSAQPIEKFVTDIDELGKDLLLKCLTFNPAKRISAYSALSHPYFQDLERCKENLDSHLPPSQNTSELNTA
T2 sequence (P30281 whole entry partner): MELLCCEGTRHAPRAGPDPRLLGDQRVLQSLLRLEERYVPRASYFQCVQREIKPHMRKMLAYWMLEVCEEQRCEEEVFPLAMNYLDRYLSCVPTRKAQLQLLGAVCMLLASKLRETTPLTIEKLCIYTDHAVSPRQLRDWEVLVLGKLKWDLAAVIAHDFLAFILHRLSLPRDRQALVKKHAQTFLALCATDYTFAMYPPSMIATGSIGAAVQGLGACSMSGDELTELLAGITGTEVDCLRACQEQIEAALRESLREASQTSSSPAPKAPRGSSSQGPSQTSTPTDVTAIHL
Sequence of CDK4-CYCLIND1 (P11802 whole entry): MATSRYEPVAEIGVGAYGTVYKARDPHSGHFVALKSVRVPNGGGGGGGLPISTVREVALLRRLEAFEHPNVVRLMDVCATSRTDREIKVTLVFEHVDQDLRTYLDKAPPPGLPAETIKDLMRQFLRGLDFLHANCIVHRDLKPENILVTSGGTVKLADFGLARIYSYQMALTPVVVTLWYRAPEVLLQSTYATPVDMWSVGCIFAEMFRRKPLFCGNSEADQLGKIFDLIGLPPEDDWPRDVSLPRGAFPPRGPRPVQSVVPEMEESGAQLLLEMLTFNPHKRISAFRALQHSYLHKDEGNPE
Sequence of CDK4-CYCLIND1 (P24385 whole entry partner): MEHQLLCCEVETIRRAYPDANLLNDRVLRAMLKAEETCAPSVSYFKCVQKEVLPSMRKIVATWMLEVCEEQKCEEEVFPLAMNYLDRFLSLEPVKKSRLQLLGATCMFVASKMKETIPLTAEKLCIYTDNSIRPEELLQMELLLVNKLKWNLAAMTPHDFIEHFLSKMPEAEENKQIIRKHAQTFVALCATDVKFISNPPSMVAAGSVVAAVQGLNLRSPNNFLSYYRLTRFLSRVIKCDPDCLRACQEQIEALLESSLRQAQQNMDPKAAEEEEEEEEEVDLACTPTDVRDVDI

- IC50 (CDK2-CYCLINA): 0.0217 µM
- IC50 (CDK6-CYCLIND3): 0.00165 µM
- IC50 (CDK7 CyclinH): 0.153 µM
- IC50 (CDK9-CYCLINT1): 0.00502 µM
- IC50 (LEXFAL MOLT-4): 0.084 µM
- IC50 (LEXFAM MV4-11): ≤ 0.01 µM
- IC50 (LXFA A549): 0.148 µM
- IC50 (LXFL NCl-H1299): 0.108 µM
- IC50 (MAXFLB MCF7 (ER+)): 0.088 µM
- IC50 (MAXFTN MDA-MB-231 (ER−)): 0.3 µM
- Cmax [1]: 7730 ng/mL
- clearance [1]: 35.2 mL/min/kg
- half-life [1]: 1.93 h
- bioavailability ([2]; oral 100 mg/kg versus IV 30 mg/kg, read-out: BIOAVAILABILITY F): 43.8%
- AUC [2, 3]: 21500 ng·h/mL
- Cmax [2, 3]: 4470 ng/mL
- MRT [2, 3]: 4.37 h
- half-life [2, 3]: 5.6 h
- IC50 (CDK4-CYCLIND1): 0.000784 µM
SMILES: CC(C)N1CCN(c2ccc(Nc3ncc4c(n3)N(C3CCCC3)C(=O)[C@]3(CCNC3=O)C4)cc2)CC1 [Example D145, (S)-8-cyclopentyl-2-((4-(4-isopropylpiperazin-1-yl)phenyl)amino)-5,8-dihydro-7H-spiro[pyrido[2,3-d]pyrimidine-6,3′-pyrrolidine]-2′,7-dione]
- IC50 (MAXFTN ZR-75-1 (ER+)): ≥ 100 µM
- IC50 (MEXF WM-266-4): 0.047 µM
- IC50 (all cell lines tested): 0.189 µM
